Assay results: patent US5773027A, “Liposomes encapsulating antiviral drugs” (priority 1995, dated 1998)

Tests used:
[1] = Pharmacokinetics in rats (plasma); format: in vivo, rat (female Sprague-Dawley)
Protocol: (§1) In brief, free and liposome-encapsulated drugs were injected to female Sprague-Dawley rats as a single intravenous bolus dose via a catheter inserted through the jugular vein of animals. At specific time points, animals were sacrificed and blood was collected in heparinized tubes and separated by centrifugation. At the same time, selected tissues were removed, washed, weighed and homogenized. Tissues and plasma were then treated according to a commercial tissue solubilizer procedure. The determination of drug and lipid levels in all samples were monitored with radioactive tracers.
Parameters were calculated from the plasma concentrationtime curves using
a noncompartmental model.
Values are expressed as means ± SD obtained from 6 animals per group

[2] = Tissue distribution in rats; format: in vivo, rat (female Sprague-Dawley); conditions: single i.v. dose 10 mg foscarnet/kg
Protocol: as §1

human CMV (AD169 strain) = assay: Anti-CMV activity: CMV p72 protein expression in MRC-5 cells; format: cell-based; conditions: MRC-5 cell line, 96 hours, in words; FIG. 2g
Protocol: The anti-CMV activity of free and liposome-encapsulated foscarnet has been also evaluated in embryonic lung fibroblast cells (MRC-5 cell line). […] After a 96 hours incubation, cells were fixed and immunoperoxydase staining was performed using a monoclonal antibody directed against a 72-kDa immediate early CMV protein Labeled plaques were counted and results were expressed as percent of untreated infected control cells versus concentration of foscarnet.

HIV-1Ada-M = assay: Antiviral efficacy in primary monocyte-derived macrophages infected with HIV-1Ada-M (p24); format: cell-based
Protocol: Briefly, cells were infected with different strains of HIV with a multiplicity of infection of 1 (virus/target cell) and were treated with different concentrations of free and liposome-encapsulated drugs. Virus replication were monitored at different time intervals by measuring either the reverse transcriptase activity in cell-free supernatants or the viral p24 protein using an enzymatic test. Virus transcription was also monitored by polymerase chain reaction (PCR) analysis 24 hours after treatment using an HIV primer pair (M661/M667). The PCR evaluation was normalized with respect to the amount of human β-globin gene in cells. Cell viability was assessed using a tetrazolium-based colorimetric (MTT) assay.
Peripheral blood mononuclear cells were suspended in seeding medium in a
48 wellplate at a density of 3 × 10^6 cells/ml. Five days after
initiation of the cultures, nonadherent cells were removed by rinsing the
cultures four times with PBS. Adherent cells were first preincubated in
the presence or absence of drugcontaining medium for 2 hours prior to
inoculation with 10,000 cpm/well of the AdaM monocytotropic strain of
HIV1. Thereafter, medium was changed once every 4 to 5 days and was
replaced with medium supplemented or not with ddI. Virus replication was
monitored by measuring p24 levels using an enzymatic assay.

[3] = system: murine monocyte-macrophage RAW 264.7 cells; assay: Cellular uptake in RAW 264.7 cells; conditions: in words, FIGS. 1a-1d
Protocol: (§2) We have performed in vitro experiments to evaluate the accumulation of free and liposome-encapsulated anti-HIV agents in murine monocyte-macrophage RAW 264.7 cells and in human premonocytoid U937 cells. In brief, experiments were performed by incubating confluent cells in culture medium in presence of different concentrations of free and liposome-encapsulated anti-HIV agents in which a small proportion of radiolabeled drugs and lipids were added. At different incubation times, the medium was removed and cells were washed and treated with a Triton X-100 solution. Drug and lipid uptake were determined by measuring the radioactivity level with a liquid scintillation counter. The protein concentration for each sample was determined with a Pierce bicinchoninic acid protein assay (Rockford, Ill.) in microtiter plates.

[4] = system: human premonocytoid U937 cells; assay: Cellular uptake in U937 cells; conditions: in words, FIGS. 1a, 1b
Protocol: as §2

[5] = [^14 C]-PFA, single i.v. dose 10 mg/kg, rats, mean ± SD
[6] = [^3 H]ddI, single i.v. dose 3 mg ddI/kg, rats

O=C(O)P(=O)(O)O [Free foscarnet, foscarnet]
AUC0→∞, area under the plasma concentration-time curve [1, 5]: 48.0 ± 9.6 nmol/mL/h | Cl, systemic clearance [1, 5]: 12.8 ± 2.5 mL/min/kg | Kel, elimination rate constant [1, 5]: 0.96 ± 0.06 h⁻¹ | MRT, mean residence time [1, 5]: 62.4 ± 4.2 min | t1/2, elimination half-life [1, 5]: 42.6 ± 2.4 min | Vdss, steady state volume of distribution ([1]; rat, in vivo, iv, 10 mg/kg): 0.80 ± 0.14 L/kg | Area under the curve, Brain ([2]; brain): 3.1 nmol foscarnet/g tissue/h | Area under the curve, Eyes ([2]; eyes): 22.9 nmol foscarnet/g tissue/h | Area under the curve, Liver ([2]; liver): 1.2 nmol foscarnet/g tissue/h | Area under the curve, Lungs ([2]; lungs): 1.5 nmol foscarnet/g tissue/h | Area under the curve, Lymph nodes ([2]; lymph nodes): 20.3 nmol foscarnet/g tissue/h | Area under the curve, Spleen ([2]; spleen): 0.8 nmol foscarnet/g tissue/h | inhibitory activity against CMV p72 protein expression (human CMV (AD169 strain)): comparable inhibitory activity

O=c1[nH]cnc2c1ncn2[C@H]1CC[C@@H](CO)O1 [Free ddI, 2'-3'-dideoxyinosine]
AUC0-∞, area under the plasma concentration-time curve [1, 6]: 5.31 nmol/mL/h | Cl, systemic clearance [1, 6]: 39.8 mL/min/kg | Kel, elimination rate constant [1, 6]: 4.97 h⁻¹ | MRT, mean residence time [1, 6]: 12 min | Vdss, steady state volume of distribution [1, 6]: 0.48 L/kg | t1/2, elimination half-life [1, 6]: 8.4 min | p24 (Days post-infection) (HIV-1Ada-M; 0.1 μM, day 7): 0 ng/mL | p24 (Days post-infection) (HIV-1Ada-M; 0.1 μM, day 13): 20 ng/mL | p24 (Days post-infection) (HIV-1Ada-M; 0.1 μM, day 17): 280 ng/mL | p24 (Days post-infection) (HIV-1Ada-M; 1 μM, day 7): 0 ng/mL | p24 (Days post-infection) (HIV-1Ada-M; 1 μM, day 13): 0 ng/mL | p24 (Days post-infection) (HIV-1Ada-M; 1 μM, day 17): 0 ng/mL | p24 (Days post-infection) (HIV-1Ada-M; 10 μM, day 7): 0 ng/mL | p24 (Days post-infection) (HIV-1Ada-M; 10 μM, day 13): 0 ng/mL | p24 (Days post-infection) (HIV-1Ada-M; 10 μM, day 17): 0 ng/mL | drug uptake / accumulation in cells [3]: a higher accumulation | drug uptake / accumulation in cells [4]: a higher accumulation
